The target of one assay is T1, human H3 receptor (Homo sapiens, UniProt Q9Y5N1).
T1 construct: expressed in transfected cells
The assay is described as follows: H3 receptor binding (N-[3H]-α-methylhistamine displacement). The note with it: membranes of SK-N-MC cells expressing cloned human H3 receptor, 0.8 nM N-[3H]-α-methylhistamine, 60 min at 25° C. How it is done:
Briefly, cell pellets from SK-N-MC cells expressing the human H3 receptor were homogenized in 50 mM Tris-HCl/5 mM EDTA and re-centrifuged at 30,000 g for 30 min. Pellets were re-homogenized in 50 mM Tris/6 mM EDTA (pH 7.4). Membranes were incubated with 0.8 nM N-[^3H]-α-methylhistamine plus/minus test compounds for 60 min at 25° C. and harvested by rapid filtration over GF/C glass fiber filters (pretreated with 0.3% polyethylenimine) followed by four washes with ice-cold buffer. Nonspecific binding was defined in the presence of 10 μM histamine.

In the next assay the target is T2, Rat SERT (Rattus norvegicus, UniProt P31652).
T2 construct: A rat brain without cerebellum (Zivic Laboratories, Inc.—Pittsburgh, Pa.) was homogenized; tissue Zivic Laboratories, Inc; host or cells: rat brain without cerebellum, membranes
T2 sequence (P31652 whole entry): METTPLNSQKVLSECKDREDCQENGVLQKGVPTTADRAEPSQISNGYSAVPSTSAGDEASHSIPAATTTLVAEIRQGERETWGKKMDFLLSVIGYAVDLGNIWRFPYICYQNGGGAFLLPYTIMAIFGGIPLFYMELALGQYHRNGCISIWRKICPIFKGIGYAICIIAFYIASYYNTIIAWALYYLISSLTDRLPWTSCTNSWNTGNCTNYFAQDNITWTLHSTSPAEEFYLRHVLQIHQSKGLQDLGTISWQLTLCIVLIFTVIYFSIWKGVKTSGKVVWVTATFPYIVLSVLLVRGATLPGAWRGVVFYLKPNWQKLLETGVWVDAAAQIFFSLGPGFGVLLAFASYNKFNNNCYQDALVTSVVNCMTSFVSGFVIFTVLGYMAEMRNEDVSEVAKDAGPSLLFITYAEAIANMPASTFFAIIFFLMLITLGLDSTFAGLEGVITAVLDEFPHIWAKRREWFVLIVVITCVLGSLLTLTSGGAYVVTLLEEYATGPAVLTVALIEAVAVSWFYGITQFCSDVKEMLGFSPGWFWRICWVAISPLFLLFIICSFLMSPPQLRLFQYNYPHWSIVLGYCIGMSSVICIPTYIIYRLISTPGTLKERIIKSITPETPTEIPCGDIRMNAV
The assay can be described thus: Rat brain SERT binding ([3H]-citalopram displacement). The note with it: rat brain membranes without cerebellum, 0.6 nM [3H]-citalopram, 60 min at 25° C.; read-out: Rat SERT Ki. How it is done: The supernatant was removed and re-centrifuged at 15,000 rpm for 30 min. […] Membranes were incubated with 0.6 nM [^3H]-Citalopram plus/minus test compounds for 60 min at 25° C. and harvested by rapid filtration over GF/C glass fiber filters (pretreated with 0.3% polyethylenimine) followed by four washes with ice-cold buffer.

T1 sequence (Q9Y5N1 whole entry): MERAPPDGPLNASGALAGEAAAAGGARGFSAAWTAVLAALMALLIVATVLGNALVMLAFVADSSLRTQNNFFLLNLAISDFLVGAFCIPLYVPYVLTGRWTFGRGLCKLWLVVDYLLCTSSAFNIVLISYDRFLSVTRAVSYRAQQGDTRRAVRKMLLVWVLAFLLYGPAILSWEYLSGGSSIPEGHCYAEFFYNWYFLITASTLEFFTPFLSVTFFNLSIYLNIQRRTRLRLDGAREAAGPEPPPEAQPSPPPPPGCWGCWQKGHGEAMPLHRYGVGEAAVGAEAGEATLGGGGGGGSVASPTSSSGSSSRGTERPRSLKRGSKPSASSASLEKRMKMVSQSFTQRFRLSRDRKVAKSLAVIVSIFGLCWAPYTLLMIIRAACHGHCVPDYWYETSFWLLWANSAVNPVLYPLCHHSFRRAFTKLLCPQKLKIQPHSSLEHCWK

In the case of `COc1ccc(C2CN(C)Cc3cc(OCC4CCN(CC(F)(F)F)CC4)ccc32)cc1` (centres unmarked) [Example 123, 4-(4-Methoxy-phenyl)-2-methyl-7-[1-(2,2,2-trifluoro-ethyl)-piperidin-4-ylmethoxy]-1,2,3,4-tetrahydroisoquinoline], the Ki at human H3 receptor was determined as 0.346 µM; on Rat SERT, 0.018 µM.

Take `COc1ccc(C2CN(C)Cc3cc(OCCCN4CCN(CC5CCCO5)CC4)ccc32)cc1` (centres unmarked) [Example 210, 4-(4-Methoxy-phenyl)-2-methyl-7-{3-[4-(tetrahydro-furan-2-ylmethyl)-piperazin-1-yl]-propoxy}-1,2,3,4-tetrahydro-isoquinoline]: the results for the Ki on human H3 receptor and on Rat SERT were 0.099 µM and 0.01 µM, respectively.

In the case of `COc1ccc(C2CN(C)Cc3cc(OCCCN4Cc5ccccc5C4)ccc32)cc1` (centres unmarked) [Example 16, 7-[3-(1,3-Dihydro-isoindol-2-yl)-propoxy]-4-(4-methoxy-phenyl)-2-methyl-1,2,3,4-tetrahydro-isoquinoline], the Ki on human H3 receptor turned out to be 0.025 µM; on Rat SERT, 0.006 µM.

Turning to `COc1ccc(C2CN(C)Cc3c2ccc(OCCCN2CCOCC2)c3C)cc1F` (centres unmarked) [Example 268, 4-(3-Fluoro-4-methoxy-phenyl)-2,8-dimethyl-7-(3-morpholin-4-yl-propoxy)-1,2,3,4-tetrahydro-isoquinoline], the Ki at human H3 receptor came out at 0.018 µM; on Rat SERT, 0.012 µM.

For the compound `COc1ccc(C2CN(C)Cc3cc(OC[C@@H]4CN(C(C)C)CCO4)ccc32)cc1` (mixture of isomers) [Example 255, 7-(4-Isopropyl-morpholin-2S-ylmethoxy)-4-(4-methoxy-phenyl)-2-methyl-1,2,3,4-tetrahydro-isoquinoline], the inhibition constant Ki at human H3 receptor stood at 0.002 µM; on Rat SERT, 0.016 µM.

`COc1ccc(C2CN(C)Cc3cc(OCCCN(C)c4nc5ccccc5s4)ccc32)cc1` (centres unmarked) [Example 19, Benzothiazol-2-yl-{3-[4-(4-methoxy-phenyl)-2-methyl-1,2,3,4-tetrahydro-isoquinolin-7-yloxy]-propyl}-methyl-amine]: the Ki on human H3 receptor stood at 2 µM; at Rat SERT, 0.008 µM.

On to `C=CCN1CCN(CCCOc2ccc3c(c2)CN(C)CC3c2ccc(OC)cc2)CC1` (centres unmarked) [Example 206, 7-[3-(4-Allyl-piperazin-1-yl)-propoxy]-4-(4-methoxy-phenyl)-2-methyl-1,2,3,4-tetrahydro-isoquinoline], for which the Ki on human H3 receptor is 0.037 µM; at Rat SERT it was 0.003 µM.

Regarding `COc1ccc(C2CN(Cc3ccccc3)Cc3cc(OCCCN4CCC(F)CC4)ccc32)cc1` (centres unmarked) [Example 127, 2-Benzyl-7-[3-(4-fluoro-piperidin-1-yl)-propoxy]-4-(4-methoxy-phenyl)-1,2,3,4-tetrahydro-isoquinoline], the values for the Ki at human H3 receptor and at Rat SERT were 0.039 µM and 5 µM, respectively.

For the compound `COc1ccc(C2CN(C)Cc3cc(OCCC4CCCN4C)ccc32)cc1` (mixture of isomers) [Example 240, 4-(4-Methoxy-phenyl)-2-methyl-7-[2-(1-methyl-pyrrolidin-2-yl)-ethoxy]-1,2,3,4-tetrahydro-isoquinoline], the Ki on human H3 receptor came out at 0.004 µM; at Rat SERT, 0.003 µM.

As to `COc1ccc(C2CN(C)Cc3cc(OCCCNC4CC4)ccc32)cc1` (centres unmarked) [Example 229, Cyclopropyl-{3-[4-(4-methoxy-phenyl)-2-methyl-1,2,3,4-tetrahydro-isoquinolin-7-yloxy]-propyl}-amine], the Ki on human H3 receptor was found to be 0.018 µM; on Rat SERT, 0.002 µM.

With `COc1ccc(C2CN(C)Cc3cc(OCC4CCN(C(=O)C(F)(F)F)CC4)ccc32)cc1` (centres unmarked) [Example 122, 2,2,2-Trifluoro-1-{4-[4-(4-methoxy-phenyl)-2-methyl-1,2,3,4-tetrahydro-isoquinolin-7-yloxymethyl]-piperidin-1-yl}-ethanone], the Ki at human H3 receptor was 0.372 µM; on Rat SERT, 0.026 µM.

Consider `COCCNCCCOc1ccc2c(c1)CN(C)CC2c1ccc(OC)cc1` (centres unmarked) [Example 225, (2-Methoxy-ethyl)-{3-[4-(4-methoxy-phenyl)-2-methyl-1,2,3,4-tetrahydro-isoquinolin-7-yloxy]-propyl}-amine], for which the Ki on human H3 receptor worked out at 0.046 µM; on Rat SERT, 0.001 µM.

On to `CCCN1CCC(Oc2ccc3c(c2)CN(C)CC3c2cccc(OC)c2)CC1` (centres unmarked) [Example 102, 4-(3-Methoxy-phenyl)-2-methyl-7-(1-propyl-piperidin-4-yloxy)-1,2,3,4-tetrahydro-isoquinoline], for which the Ki came to 0.002 µM at human H3 receptor and 0.013 µM at Rat SERT.

In the case of `COc1cccc(C2CN(C)Cc3cc(OC4CCN(C)CC4)ccc32)c1` (centres unmarked) [Example 97, 4-(3-Methoxy-phenyl)-2-methyl-7-(1-methyl-piperidin-4-yloxy)-1,2,3,4-tetrahydro-isoquinoline], the Ki at human H3 receptor is 0.006 µM; on Rat SERT it was 0.045 µM.

As to `CSc1ccc(C2CN(C)Cc3cc(OC4CCNCC4)ccc32)cc1` (centres unmarked) [Example 149, 2-Methyl-4-(4-methylsulfanyl-phenyl)-7-(piperidin-4-yloxy)-1,2,3,4-tetrahydro-isoquinoline], the Ki at human H3 receptor is 0.24 µM; at Rat SERT, 0.004 µM.

For `CSc1ccc(C2CN(C)Cc3cc(OC4CCN(C5CCOCC5)CC4)ccc32)cc1` (centres unmarked) [Example 246, 2-Methyl-4-(4-methylsulfanyl-phenyl)-7-[1-(tetrahydro-pyran-4-yl)-piperidin-4-yloxy]-1,2,3,4-tetrahydro-isoquinoline], the figures for the inhibition constant Ki at human H3 receptor and on Rat SERT were 0.003 µM and 0.01 µM, respectively.

`COc1ccc(C2CN(C)Cc3cc(OCCCNC(C)C)ccc32)cc1` (centres unmarked) [Example 230, Isopropyl-{3-[4-(4-methoxy-phenyl)-2-methyl-1,2,3,4-tetrahydro-isoquinolin-7-yloxy]-propyl}-amine]: the Ki is 0.017 µM on human H3 receptor and 0.001 µM at Rat SERT.

For `COc1ccc(C2CN(C)Cc3cc(OCCCN4CCOC(CO)C4)ccc32)cc1` (centres unmarked) [Example 184, (4-{3-[4-(4-Methoxy-phenyl)-2-methyl-1,2,3,4-tetrahydro-isoquinolin-7-yloxy]-propyl}-morpholin-2-yl)-methanol], the Ki on human H3 receptor worked out at 0.002 µM; at Rat SERT, 0.001 µM.

Turning to `CN1Cc2cc(OCCCN3CCC(F)CC3)ccc2C(c2cc(Cl)cc(Cl)c2)C1` (centres unmarked) [Example 56, 4-(3,5-Dichloro-phenyl)-7-[3-(4-fluoro-piperidin-1-yl)-propoxy]-2-methyl-1,2,3,4-tetrahydro-isoquinoline], the inhibition constant Ki on human H3 receptor was 0.02 µM; on Rat SERT, 0.042 µM.

Consider `COc1ccc(C2CN(C)Cc3cc(OC4CCNCC4)ccc32)cc1F` (centres unmarked) [Example 151, 4-(3-Fluoro-4-methoxy-phenyl)-2-methyl-7-(piperidin-4-yloxy)-1,2,3,4-tetrahydro-isoquinoline], for which the values for the Ki on human H3 receptor and at Rat SERT were 0.119 µM and 0.003 µM, respectively.

With `CN1Cc2cc(OCCCN3CCC(F)CC3)ccc2C(c2cccc(OC(F)(F)F)c2)C1` (centres unmarked) [Example 128, 7-[3-(4-Fluoro-piperidin-1-yl)-propoxy]-2-methyl-4-(3-trifluoromethoxy-phenyl)-1,2,3,4-tetrahydro-isoquinoline], the Ki amounted to 0.012 µM on human H3 receptor and 0.04 µM on Rat SERT.

In the case of `CSc1ccc(C2CN(C)Cc3cc(OCCCN4CCC(F)CC4)ccc32)cn1` (centres unmarked) [Example 187, 7-[3-(4-Fluoro-piperidin-1-yl)-propoxy]-2-methyl-4-(6-methylsulfanyl-pyridin-3-yl)-1,2,3,4-tetrahydro-isoquinoline], the Ki on human H3 receptor was 0.005 µM; on Rat SERT, 0.003 µM.

For the compound `COc1ccc(C2CN(C)Cc3cc(OCCCN4CCN(Cc5cccs5)CC4)ccc32)cc1` (centres unmarked) [Example 201, 4-(4-Methoxy-phenyl)-2-methyl-7-[3-(4-thiophen-2-ylmethyl-piperazin-1-yl)-propoxy]-1,2,3,4-tetrahydro-isoquinoline], the Ki at human H3 receptor came to 0.134 µM; at Rat SERT, 0.004 µM.

Turning to `COc1ccc(C2CN(C)Cc3cc(OCCCN4CCN(CCO)CC4)ccc32)cc1` (centres unmarked) [Example 202, 2-(4-{3-[4-(4-Methoxy-phenyl)-2-methyl-1,2,3,4-tetrahydro-isoquinolin-7-yloxy]-propyl}-piperazin-1-yl)-ethanol], the Ki on human H3 receptor was determined as 0.043 µM; at Rat SERT, 0.003 µM.

Consider `COc1ccc(C2CN(C)Cc3cc(OCCCN4CCOCC4)c(C)cc32)cc1F` (centres unmarked) [Example 267, 4-(3-Fluoro-4-methoxy-phenyl)-2,6-dimethyl-7-(3-morpholin-4-yl-propoxy)-1,2,3,4-tetrahydro-isoquinoline], for which the figures for the Ki at human H3 receptor and on Rat SERT were 0.012 µM and 0.025 µM, respectively.

On to `COc1ccc(C2CN(C)Cc3cc(OCCCN4CCN(c5ccc(C#N)cc5)CC4)ccc32)cc1` (centres unmarked) [Example 208, 4-(4-{3-[4-(4-Methoxy-phenyl)-2-methyl-1,2,3,4-tetrahydro-isoquinolin-7-yloxy]-propyl}-piperazin-1-yl)-benzonitrile], for which the inhibition constant Ki turned out to be 0.137 µM at human H3 receptor and 0.004 µM at Rat SERT.

As to `COc1ccc(C2CN(C)Cc3cc(OCCCN4CCC[C@H]4C(F)(F)F)ccc32)cc1` (stereo partly drawn) [Example 28, 4-(4-Methoxy-phenyl)-2-methyl-7-[3-((2S)-trifluoromethyl-pyrrolidin-1-yl)-propoxy]-1,2,3,4-tetrahydro-isoquinoline], the results for the Ki at human H3 receptor and on Rat SERT were 0.14 µM and 0.012 µM, respectively.

Turning to `COc1ccc(C2CN(C)Cc3cc(OCC4CCN(C(C)C)CC4)ccc32)cc1Cl` (centres unmarked) [Example 88, 4-(3-Chloro-4-methoxy-phenyl)-7-(1-isopropyl-piperidin-4-ylmethoxy)-2-methyl-1,2,3,4-tetrahydro-isoquinoline], the Ki at human H3 receptor came out at 0.003 µM; at Rat SERT, 0.015 µM.

A word on the Ki: it is a dissociation constant, usually derived from enzyme kinetics or from competition with a known ligand.

The values above are taken from patent US20060194837A1, “Tetrahydroisoquinoline compounds” (priority 2004, published 2006).
